Data as given in ChEMBL document CHEMBL3244158, “Dimerization of coralyne and its propyl analogue and their association with DNA” (J Med Chem, 1979).
Calls of active or inactive are those of the source. The rule behind the calls is not given here.

System: Calf thymus DNA
Test: Binding affinity to calf thymus DNA at 0.033 to 0.995 ligand to DNA ratio by spectrophotometer analysis
Assay type: nucleic-acid assay
Conditions: Bos taurus

Row | Activity | Structure (SMILES)
1 | Active | COc1cc2cc3c4cc(OC)c(OC)cc4cc[n+]3c(C)c2cc1OC
2 | Active | CCCc1c2cc(OC)c(OC)cc2cc2c3cc(OC)c(OC)cc3cc[n+]12
